Test results reported in US20040235931A1, “Inhibition of herpes virus replication” (priority 2003, published 2004).

Tests used:
Vero cells = experiment: MTT toxicity assay in Vero cells; format: cell-based, African green monkey; conditions: MTT, 24, 48 and 72 hours
Protocol: (§1) African green monkey kidney cells (Vero) and Human neonatal lung fibroblasts cells (MRC-5) were obtained from the American Type Culture Collection, (Rockville, Md.). Vero cells were grown and maintained in Medium 199 supplemented with 5% fetal bovine serum, 0.075% NaHCO3 and 50 μg/ml gentamycin sulfates. MRC-5 cells were grown and maintained in Minimal Essential Medium with Earle's Balanced Salt Solution containing 2 mM L-glutamine supplemented with 10% fetal bovine serum, 0.lmM nonessential amino acids, 1 mM sodium pyruvate, 2% sodium bicarbonate and 50 μg/ml gentamycin sulfate.
(§2) Cells were exposed to drug treated media of varying concentrations. […] I3C concentrations used in these studies were 50% and 75% of the CD50. Cells were seeded onto a 96 well at 10,000 cells/well and grown for 24 hours. Twelve different serially diluted concentrations of I3C were then incubated with the cells for 24, 48 and 72 hours and colorimetric readings were taken at these time points using the MTT reagent. Controls included in the 96 well plate were, media alone that contained no cells but with I3C, media with cells but no I3C, and plain media with 0.2% DMSO and no cells or drug. At 24, 48 and 72 hours a sigmoidal curve was generated for each time period and the data analyzed. Approximately, 500 μM was the concentration at which 50 percent of the cells died (CD50).

[1] = test system: acyclovir resistant HSV-1; experiment: Acyclovir-resistant HSV-1 replication in Vero cells, pfu determination; format: cell-based, herpes simplex virus type 1 (HSV-1)
Protocol: Vero cell cultures were infected with acyclovir resistant HSV-1 at an moi of one for one hour. Test cells were treated with 267 μM of I3C immediately after or 24 hours prior to infection. At 24, 48, and 72 hours after infection, the number of pfu's present in the test cell pre-treated with I3C or treated with I3C post infection were determined.

HSV = experiment: Direct inactivation of HSV by incubation with I3C, plaque assay; conditions: HSV mixed with I3C solution (267 μM); 1, 10, 30 and 60 minutes; compared to control virus
Protocol: To determine if I3C could directly inactivate […] studies were done in which HSV was mixed with a solution of I3C (267 μM). Samples were taken at 1, 10, 30 and 60 minutes and the presence of infectious virus determined by the plaque assay.

HSV-1 [2] = experiment: HSV-1 replication in Vero cells, plaque forming units (pfu) titration; format: cell-based, herpes simplex virus type 1 (HSV-1)
Protocol: Cultures of African green monkey kidney cells (Vero) cells, obtained from the American Type Culture Collection, Rockville, Md., were grown to confluence in Medium 199 supplemented with 5% fetal bovine serum, 0.075% NaHCO3, and 50 μg/ml gentamycin sulfate in 25 cm^2 tissue culture flasks. Cells were infected with HSV-1 at a multiplicity of infection (moi) of one and incubated at room temperature for one hour to allow for virus attachment to and penetration of the cell. Under these conditions, approximately half of the cells are infected with virus. Thereafter, the cultures were rinsed three time with media and incubated in medium containing 133 μM, 267 μM, or 400 μM I3C prepared in 0.2% dimethyl-sulfoxide (DMSO). Controls were treated identically, but were incubated without the I3C.
Upon addition of the medium to the cultures and at 24 hours time periods thereafter, i.e., 0 hours, 24 hours, 48 hours, and 72 hours after addition of the drug, cells and medium were frozen at −70° C. Samples were then thawed, sonicated and titrated on Vero cells to determine the number of plaque forming units (pfu's) of virus produced by each culture.
Vero cell cultures were infected with HSV-1 as described above in Example 1 except that the cells were treated with 267 μM of I3C for 6, 12, or 24 hours prior to infection. Cells were infected with HSV-1 at an moi of 1 for 1 hour. Following removal of the unabsorbed virus, the infected cells were incubated in media containing 0.2% DMSO (control cells) or in media containing 267 μM of I3C (test cells) At 24, 48, and 72 hours after infection, the number of pfu's present in the cells and medium of the I3C -treated cultures was determined.

HSV-2 = HSV-2 replication in Vero cells, pfu determination; format: cell-based, herpes simplex virus type 2 (HSV-2); conditions: 267 μM I3C
Protocol: Vero cell cultures that had been pretreated with 267 μM of I3C were infected with HSV-2 at an moi of one for 1 hour At 24, 48, and 72 hours after infection, the number of pfu's present in the cells and medium of the I3C pre-treated cultures were determined. In addition, Vero cells were infected with HSV-2 at an moi of one for 1 hour, and thereafter the cultures were rinsed three time with media and incubated in medium containing 267 μM prepared in 0.2% dimethyl-sulfoxide (DMSO). At 24, 48, and 72 hours after infection, the number of pfu's present in the test cell pre-treated with I3C or treated with I3C post infection were determined.

MRC-5 cells = experiment: MTT toxicity assay in MRC-5 cells; format: cell-based, Human; conditions: MTT, 24, 48 and 72 hours
Protocol: as §1, §2

HSV-1 [3] = experiment: HSV-1 replication in MRC-5 cells, pfu determination; format: cell-based, herpes simplex virus type 1 (HSV-1); conditions: 375 μM I3C, pretreatment for 24 or 36 hours prior to infection
Protocol: MRC-5 cell cultures were infected with HSV-1 as described above in Example 1 except that the cells were treated with 375 μM of I3C following infection or for 12, 24, or 36 hours prior to infection. Cells were infected with HSV-1 at an moi of 1 for 1 hour. Following removal of the unabsorbed virus, the infected cells were incubated in media containing 0.2% DMSO (control cells) or in media containing 375 μM of I3C (test cells) At 24, 48, and 72 hours after infection, the number of pfu's present in the cells and medium of the cultures treated with I3C prior to or after infection was determined.

OCc1c[nH]c2ccccc12 [I3C, indole-3-carbinol]
CD50 (concentration at which 50 percent of the cells died) (Vero cells): ~500 µM | replication of acyclovir-resistant HSV ([1]; 267 μM I3C post infection, Vero cells, 24, 48, 72 hours after infection): proceeded at a reduced rate for 24 hours and then rapidly decreased at 48 and 72 hours to undetectable levels | inhibition of acyclovir-resistant HSV 1 replication ([1]; 267 μM I3C, Vero cells incubated 24 hours prior to infection): dramatic and complete | direct inactivation of HSV (HSV): no significant inactivation of HSV | inhibition of HSV replication (HSV-1 [2]; 267 μM I3C, Vero cells incubated 12 to 24 hours prior to infection): dramatic and complete | HSV replication (HSV-1 [2]; 267 μM I3C, Vero cells pre-incubated 6 hours prior to infection, 24, 48, 72 hours after infection): proceeded at a reduced rate for 24 hours and then rapidly decreased at 48 and 72 hours to undetectable levels | infectious HSV particles in cultures (HSV-1 [2]; 400 μM I3C continuously post infection, Vero cells, by 72 hours): virtually undetectable | inhibition of formation of infectious virus particles (HSV-1 [2]; 400 μM I3C post infection, Vero cells, moi 1, at 24 hours): more than 99% | dose dependence of inhibition of virus replication (HSV-1 [2]; 133, 267, 400 μM I3C post infection, Vero cells): dose dependent | HSV-2 replication, first 24 hours (HSV-2; Vero cells treated 24 hours pre-infection): proceeded at a reduced rate for 24 hours | HSV-2 replication, first 24 hours (HSV-2; Vero cells treated post infection): proceeded at a reduced rate for 24 hours | HSV-2 replication at 48 and 72 hours (HSV-2; post-treated Vero cells): decreased at 48 and 72 hours | HSV-2 replication at 48 and 72 hours (HSV-2; pre-treated Vero cells): decreased at 48 and 72 hours | CD50 (concentration at which 50 percent of the cells died) (MRC-5 cells): ~500 µM | HSV-1 replication in MRC5 cells (HSV-1 [3]): inhibition of HSV-1 replication
